Experiments:
[1] = molecular target: T1, ALDH1A3 (Homo sapiens, UniProt P47895); experiment: IC50 and Ki evaluation, enzymatic inhibition with acetaldehyde; assay type: biochemical
T1 construct: E. coli BL21 (DE3) were transformed with the full-length expression vector of each isoform; His-tag; made in house; host or cells: E. coli BL21 (DE3)
T1 sequence (P47895 1-512): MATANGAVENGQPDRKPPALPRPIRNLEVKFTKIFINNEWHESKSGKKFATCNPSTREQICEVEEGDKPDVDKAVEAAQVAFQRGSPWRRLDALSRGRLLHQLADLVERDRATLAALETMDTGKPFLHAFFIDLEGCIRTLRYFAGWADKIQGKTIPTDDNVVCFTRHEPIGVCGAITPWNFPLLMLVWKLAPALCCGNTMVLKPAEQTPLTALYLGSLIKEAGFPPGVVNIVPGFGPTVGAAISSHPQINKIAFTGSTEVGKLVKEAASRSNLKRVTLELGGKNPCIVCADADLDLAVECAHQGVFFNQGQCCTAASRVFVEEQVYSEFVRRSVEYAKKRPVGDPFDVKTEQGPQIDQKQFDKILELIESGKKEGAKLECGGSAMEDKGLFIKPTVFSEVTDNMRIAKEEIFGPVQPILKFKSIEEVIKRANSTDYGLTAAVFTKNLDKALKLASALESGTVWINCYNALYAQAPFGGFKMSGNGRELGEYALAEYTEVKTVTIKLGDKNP
Description: Initially, the inhibitory activities of our fluorescent probes were screened at a fixed concentration of 50 μM using a Tecan Sunrise 96 Multiplate Reader with Greiner Bio-One 96-UV-Transparent Microplates. The analysis was performed in triplicate in a total volume of 100 μl per well containing 20 mM Tris HCl pH 8.0, 1 mM β-mercaptoethanol, 150 mM KCl, 500 μM NAD^+, […], 2.8 μM hALDH1A and 20 mM acetaldehyde. Afterwards, the inhibitory potency of the fluorescent probes was further investigated, evaluating the IC50 parameter. The enzymatic inhibition assays were performed in triplicate in a total volume of 100 μl per well containing 20 mM Tris HCl pH 8.0, 1 mM β-mercaptoethanol, 150 mM KCl, 500 μM NAD^+, 2.8 μM hALDH1A and 20 mM acetaldehyde in the presence of different probe concentrations, from 200 μM to 1.5625 μM. The DMSO final concentration allowed was up to 15%. Only for ALDH1A3 in complex with Probe 10, the Ki affinity parameter was calculated by performing the analysis in triplicate in a total volume of 100 μl per well containing 20 mM Tris HCl pH 8.0, 1 mM β-mercaptoethanol, 150 mM KCl, 500 μM NAD^+ and 2.8 μM ALDH1As. Due to chemical nature of Probe 10 and Probe 11, we set up the enzymatic assay assuming a competitive inhibition using different compounds concentration, from 200 μM to 1 μM, and different acetaldehyde concentrations, from 20 mM to 2.5 mM. Each reaction mix was preincubated for 10 min at 25 °C before the analysis. The catalytic activity was measured by monitoring the absorbance at 340 nm (εNADH = 6220 M^−^1 cm^−1) for 30 min at 25 °C and the inhibitory parameters were calculated by processing the raw data on SigmaPlot[53].

[2] = Absorbance, emission and excitation wavelengths evaluation; assay type: physicochemical; details: 10 µM in SEC buffer
Description: Fluorescent compounds were analyzed on a Tecan Spark to evaluate the correct parameters to further set the biochemical characterizations. The absorbance was evaluated in a range from 300 to 700 nm, with a wavelength step size of 5 nm. Based on the absorbance values, we settled a 3D fluorescence emission scan to evaluate the excitation and emission peaks. The analysis was conducted using the same buffer mix, as already described. The excitation range was set between 390 and 450 nm for both molecules, with a step size of 5 nm. The emission range was set between 485 and 700 nm for both molecules, with a step size of 5 nm. All these characterizations were performed on a Tecan Spark using Greiner Bio-One 96-UV-Transparent Microplates and the tests were carried out using a total volume of 100 μl for each well.

[3] = system: GL261 murine glioma cells; experiment: Imaging flow cytometry of living GL261 cells incubated with probe; assay type: cell-based; details: 1 h incubation
Description: GL261 cells were incubated, with probe 10 or 11, for 1 h and after three rinses in PBS, cells were detached by trypsin treatment and visualized without fixation through a rMarkII flow cytometer (Amnis, Luminex Corporation, Austin, TX, USA) as previously described. Data were collected using Inspire software (Amnis, version 2.0) with the following parameters: 10,000 images per sample, 488 nm laser (25 and 100 mW) to excite the probes, 785 nm laser used to provide a side scatter signal and measurement of SpeedBeads (Amnis, Luminex Corporation, Austin, TX, USA), 830 nm laser used for internal bead calibration of core flow speed and focus, ×60 objective, in low-speed flow. Data were further analyzed by Ideas software (Amnis, version 6.1).

[4] = Solubility in physiological buffer; assay type: physicochemical; details: among all five molecules
Excerpt: All five fluorescent compounds were firstly characterized for their solubility in physiological buffer and for their absorbance values. We then performed a 3D analysis using a TECAN SPARK to simultaneously evaluate the excitation and the emission wavelengths, that were supposed to be similar to the curcumin ones[48]. […] For these reasons, we decided to continue the biochemical characterization on Probe 10 and 11 using the selected parameters (Fig. 2). The fluorescent signal changes for both molecules upon binding to the target, were firstly evaluated with recombinant human ALDH1A3. […] To better characterized our fluorescent compounds, we tested their potential cross-reactivity toward the other two isoforms of the ALDH1A subfamily. […] In addition, a wide range of biologically relevant analytes were tested at a concentration of 100 μM in complex with a fixed concentration of 10 μM of the probe (either probe 10 or probe 11), to make sure that no potential off-target signals could affect the analysis. More specifically, we checked if there were abnormal fluorescence signals that could have been contributed by the presence of biologically relevant compounds, (e.g., biologically relevant amino acids), to buffers and molecules commonly used in experimental procedures.

SMILES	inhibition of ALDH1A3 [1]	mechanism of action (inhibition) [1]	Ki ([1]; acetaldehyde substrate, full competitive model) [nM]	Abs [2] [nm]	Em [2] [nm]	Ex [2] [nm]	entry into and labelling of GL261 cells in vitro [3]	solubility in physiological buffer [4]
COc1cc(/C=C/C(O)=C/C(=O)/C=C/c2ccc(OCc3cn(CCOc4ccc(C=O)cc4)nn3)c(OC)c2)ccc1O [Probe 10]	strongly inhibited	competitive	880	410	545	420	able to enter and label the murine glioblastoma cells	highest solubility
CCOC(=O)Cn1cc(COc2ccc(/C=C/C(=O)/C=C(O)/C=C/c3ccc(O)c(OC)c3)cc2OC)nn1 [Probe 11]	no inhibitory effect			410	545	420	able to enter and label the murine glioblastoma cells	highest solubility
